Source: ChEMBL document CHEMBL1909046, “DrugMatrix in vitro pharmacology data”
pIC50: −log10 of the molar value.

Tests used:
[1] = DRUGMATRIX: Imidazoline I2, Central radioligand binding (ligand: [3H] Idazoxan); assay type: cell membranes, Rattus norvegicus, Wistar, Cerebral cortex, Membrane; details: Not Active = under 50% inhibition at 10 µM
[2] = molecular target: T1, Muscarinic acetylcholine receptor M2 (Homo sapiens, UniProt P08172); assay type: cell membranes, CHO-K1, Membrane; details: cho-k1; also: in other assays of this panel Not Active means under 50% inhibition at 10 µM
T1 sequence (P08172 whole entry): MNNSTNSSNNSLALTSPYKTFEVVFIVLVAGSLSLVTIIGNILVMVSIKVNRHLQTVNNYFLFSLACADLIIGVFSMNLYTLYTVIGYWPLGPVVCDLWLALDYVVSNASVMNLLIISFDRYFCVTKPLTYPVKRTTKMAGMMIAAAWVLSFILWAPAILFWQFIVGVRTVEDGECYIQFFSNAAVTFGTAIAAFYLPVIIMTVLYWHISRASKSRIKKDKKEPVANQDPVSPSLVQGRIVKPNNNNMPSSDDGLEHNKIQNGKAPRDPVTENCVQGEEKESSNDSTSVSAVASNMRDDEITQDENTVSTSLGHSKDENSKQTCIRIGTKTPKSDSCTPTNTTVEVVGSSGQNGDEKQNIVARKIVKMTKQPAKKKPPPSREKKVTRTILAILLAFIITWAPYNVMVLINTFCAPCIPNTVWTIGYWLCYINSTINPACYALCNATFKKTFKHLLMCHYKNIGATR

[3] = molecular target: T2, Muscarinic acetylcholine receptor M5 (Homo sapiens, UniProt P08912); assay type: cell membranes, Membrane; details: cho-k1; also: in other assays of this panel Not Active means under 50% inhibition at 10 µM
T2 sequence (P08912 whole entry): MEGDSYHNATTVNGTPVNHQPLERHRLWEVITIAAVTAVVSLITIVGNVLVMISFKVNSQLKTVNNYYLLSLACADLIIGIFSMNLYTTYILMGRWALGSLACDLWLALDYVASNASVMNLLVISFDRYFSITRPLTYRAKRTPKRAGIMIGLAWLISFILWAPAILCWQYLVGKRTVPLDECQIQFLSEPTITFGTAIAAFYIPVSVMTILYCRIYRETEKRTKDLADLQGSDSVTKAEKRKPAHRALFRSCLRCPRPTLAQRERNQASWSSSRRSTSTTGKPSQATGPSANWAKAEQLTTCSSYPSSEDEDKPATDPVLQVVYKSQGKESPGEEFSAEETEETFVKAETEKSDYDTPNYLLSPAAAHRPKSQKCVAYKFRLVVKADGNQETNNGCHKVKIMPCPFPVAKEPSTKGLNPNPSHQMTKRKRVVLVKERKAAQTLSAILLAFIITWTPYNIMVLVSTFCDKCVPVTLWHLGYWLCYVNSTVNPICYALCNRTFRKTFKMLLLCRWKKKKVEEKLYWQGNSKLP

[4] = molecular target: Epidermal growth factor receptor (Homo sapiens, UniProt P00533); experiment: DRUGMATRIX: Protein Tyrosine Kinase, EGF Receptor enzyme inhibition (substrate: Poly(Glu:Tyr)); assay type: cell-based, Insect cells; details: Not Active = under 50% inhibition at 10 µM; for IC50: insect cells
Adenosine receptor A2a = Adenosine receptor A2a (Homo sapiens, UniProt P29274); experiment: DRUGMATRIX: Adenosine A2A radioligand binding (ligand: […]); assay type: cell membranes, HEK293, Membrane; details: hek293; Not Active = under 50% inhibition at 10 µM
Cytochrome P450 2C9 = Cytochrome P450 2C9 (Homo sapiens, UniProt P11712); details: bti-tn-5b1-4; also: in other assays of this panel Not Active means under 50% inhibition at 10 µM
Cytochrome P450 2C9, sequence (P11712 whole entry): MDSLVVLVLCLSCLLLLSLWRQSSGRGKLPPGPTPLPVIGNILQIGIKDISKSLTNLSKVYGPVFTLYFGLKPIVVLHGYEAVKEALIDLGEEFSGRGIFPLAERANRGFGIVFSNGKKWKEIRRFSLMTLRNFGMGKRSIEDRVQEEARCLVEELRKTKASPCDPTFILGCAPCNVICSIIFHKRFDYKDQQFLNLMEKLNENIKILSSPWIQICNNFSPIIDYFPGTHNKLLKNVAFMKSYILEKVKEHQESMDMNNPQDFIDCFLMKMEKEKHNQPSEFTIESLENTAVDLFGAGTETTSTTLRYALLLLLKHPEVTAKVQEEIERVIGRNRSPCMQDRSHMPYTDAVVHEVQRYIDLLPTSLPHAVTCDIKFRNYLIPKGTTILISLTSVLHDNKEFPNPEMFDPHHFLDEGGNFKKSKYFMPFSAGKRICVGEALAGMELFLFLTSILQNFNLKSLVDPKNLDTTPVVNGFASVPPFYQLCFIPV

Epidermal growth factor receptor, sequence (P00533 whole entry): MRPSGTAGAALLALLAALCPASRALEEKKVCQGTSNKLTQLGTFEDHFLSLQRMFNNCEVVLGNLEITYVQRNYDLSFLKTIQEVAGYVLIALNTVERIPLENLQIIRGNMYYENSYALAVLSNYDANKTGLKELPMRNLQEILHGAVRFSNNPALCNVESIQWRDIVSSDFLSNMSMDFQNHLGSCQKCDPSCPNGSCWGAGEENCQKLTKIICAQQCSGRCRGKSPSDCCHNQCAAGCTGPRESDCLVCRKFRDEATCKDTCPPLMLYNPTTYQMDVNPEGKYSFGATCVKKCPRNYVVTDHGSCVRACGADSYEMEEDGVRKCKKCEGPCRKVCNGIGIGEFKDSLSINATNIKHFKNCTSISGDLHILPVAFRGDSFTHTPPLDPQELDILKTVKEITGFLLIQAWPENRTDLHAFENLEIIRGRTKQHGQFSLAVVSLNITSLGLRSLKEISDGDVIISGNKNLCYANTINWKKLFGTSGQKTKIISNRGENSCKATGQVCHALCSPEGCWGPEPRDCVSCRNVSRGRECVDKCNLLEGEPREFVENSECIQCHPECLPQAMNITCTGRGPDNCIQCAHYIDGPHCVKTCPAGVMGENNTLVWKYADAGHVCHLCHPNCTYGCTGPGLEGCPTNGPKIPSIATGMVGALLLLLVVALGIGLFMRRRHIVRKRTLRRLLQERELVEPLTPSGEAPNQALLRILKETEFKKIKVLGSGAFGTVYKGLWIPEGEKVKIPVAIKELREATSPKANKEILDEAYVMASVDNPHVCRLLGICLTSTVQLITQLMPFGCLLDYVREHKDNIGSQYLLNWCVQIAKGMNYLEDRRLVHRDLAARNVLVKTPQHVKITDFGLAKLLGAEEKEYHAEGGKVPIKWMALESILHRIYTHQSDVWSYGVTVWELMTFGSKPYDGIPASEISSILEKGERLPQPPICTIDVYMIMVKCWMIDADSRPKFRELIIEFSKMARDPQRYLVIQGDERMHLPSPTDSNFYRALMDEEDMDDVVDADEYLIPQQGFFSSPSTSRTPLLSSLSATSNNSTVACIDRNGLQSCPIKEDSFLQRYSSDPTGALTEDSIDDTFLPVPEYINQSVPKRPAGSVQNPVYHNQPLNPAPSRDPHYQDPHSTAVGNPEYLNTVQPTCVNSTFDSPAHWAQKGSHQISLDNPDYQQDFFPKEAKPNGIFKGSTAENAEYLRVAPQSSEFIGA
Adenosine receptor A2a, sequence (P29274 whole entry): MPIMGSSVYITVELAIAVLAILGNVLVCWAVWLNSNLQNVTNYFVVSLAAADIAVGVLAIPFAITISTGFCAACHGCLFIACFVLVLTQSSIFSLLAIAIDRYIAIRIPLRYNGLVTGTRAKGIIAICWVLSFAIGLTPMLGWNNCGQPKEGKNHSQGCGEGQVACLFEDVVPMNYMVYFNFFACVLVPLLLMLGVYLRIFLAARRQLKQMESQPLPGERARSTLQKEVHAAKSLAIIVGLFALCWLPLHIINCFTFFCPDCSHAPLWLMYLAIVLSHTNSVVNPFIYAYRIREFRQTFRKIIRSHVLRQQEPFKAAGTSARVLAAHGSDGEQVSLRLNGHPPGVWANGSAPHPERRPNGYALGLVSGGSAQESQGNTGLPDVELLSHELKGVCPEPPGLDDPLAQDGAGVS

Row | Compound | IC50 [1] | Ki [1] | IC50 [2] | IC50 [3] | IC50 [4] | IC50 (Adenosine receptor A2a) | IC50 (Cytochrome P450 2C9) | Ki (Cytochrome P450 2C9) | pIC50 ([4]; read-out: IC50)
1 | COc1ccccc1OCC(O)COC(N)=O (centres undefined) [METHOCARBAMOL] | Not Active | Not Active | Not Active | Not Active | Not Active | Not Active | Not Active | Not Active | 
2 | CO[C@@]1(NC(=O)CSCC#N)C(=O)N2C(C(=O)O)=C(CSc3nnnn3C)CS[C@@H]21 [CEFMETAZOLE] | Not Active | Not Active | Not Active | Not Active | Not Active | Not Active | Not Active | Not Active | 
3 | C=C(CC)C(=O)c1ccc(OCC(=O)O)c(Cl)c1Cl [ETHACRYNIC ACID] | Not Active | Not Active | Not Active | Not Active | Not Active | Not Active | Not Active | Not Active | 
4 | Oc1ccccc1O [CATECHOL] | Not Active | Not Active | Not Active | Not Active |  | Not Active | Not Active | Not Active | 4.58
5 | CC(C)(CO)C(O)C(=O)NCCCO (centres undefined) [PANTHENOL] | Not Active | Not Active | Not Active | Not Active | Not Active | Not Active | Not Active | Not Active | 
6 | NC(=O)N1c2ccccc2C=Cc2ccccc21 [CARBAMAZEPINE] | Not Active | Not Active | Not Active | Not Active | Not Active | Not Active | Not Active | Not Active | 
7 | CN(Cc1cnc2nc(N)nc(N)c2n1)c1ccc(C(=O)N[C@@H](CCC(=O)O)C(=O)O)cc1 [METHOTREXATE] | Not Active | Not Active | Not Active | Not Active | Not Active | Not Active |  |  | 
8 | O=P1(N(CCCl)CCCl)NCCCO1 (centres undefined) [CYCLOPHOSPHAMIDE ANHYDROUS] | Not Active | Not Active | Not Active | Not Active | Not Active | Not Active | Not Active | Not Active | 
9 | C[C@]12CCC(=O)C=C1CC[C@@H]1[C@@H]2[C@@H](O)C[C@@]2(C)[C@H]1CC[C@]2(O)C(=O)CO [HYDROCORTISONE] | Not Active | Not Active | Not Active | Not Active | Not Active | Not Active | Not Active | Not Active | 
10 | Cc1cccc(Nc2ccccc2C(=O)O)c1C [MEFENAMIC ACID] | Not Active | Not Active | Not Active | Not Active | Not Active | Not Active | Not Active | Not Active | 
11 | CCn1cc(C(=O)O)c(=O)c2cc(F)c(N3CCNCC3)nc21 [ENOXACIN] | Not Active | Not Active | Not Active | Not Active | Not Active | Not Active | Not Active | Not Active | 
12 | Cc1c(N(C)CS(=O)(=O)[O-])c(=O)n(-c2ccccc2)n1C.[Na+] [DIPYRONE SODIUM] | Not Active | Not Active | Not Active | Not Active | Not Active | Not Active | Not Active | Not Active | 
13 | C#C[C@]1(O)CC[C@H]2[C@@H]3CCC4=Cc5oncc5C[C@]4(C)[C@H]3CC[C@@]21C [DANAZOL] | Not Active | Not Active | Not Active | Not Active | Not Active | Not Active |  |  | 
14 | CC(=O)O[C@]1(C(C)=O)CC[C@H]2[C@@H]3C=C(C)C4=CC(=O)CC[C@]4(C)[C@H]3CC[C@@]21C [MEGESTROL ACETATE] | Not Active | Not Active | Not Active | Not Active | Not Active | Not Active |  |  | 
15 | CCOC(=O)n1ccn(C)c1=S [CARBIMAZOLE] | Not Active | Not Active | Not Active | Not Active | Not Active | Not Active | Not Active | Not Active | 
16 | CN1C(=O)CN=C(c2ccccc2)c2cc(Cl)ccc21 [DIAZEPAM] | Not Active | Not Active | Not Active | Not Active | Not Active | Not Active |  |  | 

Row | Compound | IC50 [1] | Ki [1] | IC50 [2] | IC50 [3] | IC50 [4] | IC50 (Adenosine receptor A2a) | IC50 (Cytochrome P450 2C9) | Ki (Cytochrome P450 2C9) | pIC50 ([4]; read-out: IC50)
17 | NC[C@H]1O[C@H](O[C@H]2[C@H](O)[C@@H](O[C@H]3O[C@H](CO)[C@@H](O)[C@H](N)[C@H]3O)[C@H](N)C[C@@H]2N)[C@H](O)[C@@H](O)[C@@H]1O [KANAMYCIN] | Not Active | Not Active | Not Active | Not Active | Not Active | Not Active | Not Active | Not Active | 
18 | COc1cc(CNC(=O)CCCC/C=C/C(C)C)ccc1O [CAPSAICIN] | Not Active | Not Active | Not Active | Not Active | Not Active | Not Active | Not Active | Not Active | 
19 | C[C@@H]1CC[C@H]2[C@@H](C)C(=O)O[C@@H]3O[C@@]4(C)CC[C@@H]1[C@]32OO4 [ARTEMISININ] | Not Active | Not Active | Not Active | Not Active | Not Active | Not Active |  |  | 
20 | Cc1cn[nH]c1 [FOMEPIZOLE] | Not Active | Not Active | Not Active | Not Active | Not Active | Not Active |  |  | 
21 | COc1ccccc1OCC(O)CO (centres undefined) [GUAIFENESIN] | Not Active | Not Active | Not Active | Not Active | Not Active | Not Active |  |  | 
22 | N[C@@H](Cc1ccc(F)cc1)C(=O)O | Not Active | Not Active | Not Active | Not Active | Not Active | Not Active |  |  | 
23 | CCOC(=O)C1=C(C)NC(C)=C(C(=O)OC)C1c1cccc(Cl)c1Cl (centres undefined) [FELODIPINE] | Not Active | Not Active | Not Active | Not Active | Not Active | Not Active |  |  | 
24 | CCC[C@@H]1C[C@@H](C(=O)N[C@@H]([C@H]2O[C@H](SC)[C@H](O)[C@@H](O)[C@H]2O)[C@H](C)Cl)N(C)C1 [CLINDAMYCIN] | Not Active | Not Active | Not Active | Not Active | Not Active | Not Active |  |  | 
25 | OCCN1CCN(CCCN2c3ccccc3Sc3ccc(Cl)cc32)CC1 [PERPHENAZINE] | Not Active | Not Active | Not Active | Not Active | Not Active | Not Active |  |  | 
26 | C/C=C\c1ccc(O)c(OC)c1 [ISOEUGENOL] | Not Active | Not Active | Not Active | Not Active | Not Active | Not Active |  |  | 
27 | O=C(c1ccccc1Cl)N1CCC(Cc2ccccc2)CC1 | Not Active | Not Active | Not Active | Not Active | Not Active | Not Active |  |  | 
28 | O=C(O)c1cccnc1 [NIACIN] | Not Active | Not Active | Not Active | Not Active | Not Active | Not Active |  |  | 
29 | CC[C@H](C)C(=O)O[C@H]1C[C@@H](C)C=C2C=C[C@H](C)[C@H](CC[C@@H]3C[C@@H](O)CC(=O)O3)[C@H]21 [LOVASTATIN] | Not Active | Not Active | Not Active | Not Active | Not Active | Not Active |  |  | 
30 | CCc1oc2ccccc2c1C(=O)c1cc(Br)c(O)c(Br)c1 [BENZBROMARONE] | Not Active | Not Active | Not Active | Not Active | Not Active | Not Active |  |  | 
31 | Cc1cnc(C(=O)NCCc2ccc(S(=O)(=O)NC(=O)NC3CCCCC3)cc2)cn1 [GLIPIZIDE] | Not Active | Not Active | Not Active | Not Active | Not Active | Not Active |  |  | 
